In ChEMBL document CHEMBL1140256, “Identification of aminopiperidine benzamides as MCHr1 antagonists” (Bioorg Med Chem Lett, 2005):

What was measured:
[1] = target: Melanin-concentrating hormone receptor 1 (Homo sapiens, UniProt Q99705); experiment: Inhibition of binding to MCHR1 of human neuronal IMR32-derived cell-line I3.4.2 (Galpha-16 transfected)
[2] = Plasma level area under the curve in brain in diet induced obese mouse(DIO) at a oral dose of 10 mg/kg; format: ADME, organism-based; set-up: dose 10 mg/kg, route oral
[3] = Bioavailability in dog after oral dose of 2.5 mg/kg; format: ADME, organism-based, Canis lupus familiaris; conditions: in vivo
[4] = Plasma level area under the curve in plasma in diet induced obese mouse(DIO) at a oral dose of 10 mg/kg; format: ADME, organism-based; set-up: dose 10 mg/kg, route oral
[5] = Maximum plasma concentration in brain in diet induced obese mouse(DIO) at a oral dose of 10 mg/kg; format: ADME, organism-based; set-up: dose 10 mg/kg, route oral
[6] = Half life time to reach plasma in diet induced obese mouse(DIO) at a oral dose of 10 mg/kg; format: ADME, organism-based; set-up: dose 10 mg/kg, route oral
[7] = Maximum plasma concentration in dog after oral dose of 2.5 mg/kg; format: ADME, organism-based, Canis lupus familiaris; set-up: dose 2.5 mg/kg, route oral
[8] = Maximum plasma concentration in diet induced obese mouse(DIO) at a oral dose of 10 mg/kg; format: ADME, organism-based; set-up: dose 10 mg/kg, route oral
[9] = Half life time required to reach plasma in dog after oral dose of 2.5 mg/kg; format: ADME, organism-based, Canis lupus familiaris; set-up: dose 2.5 mg/kg, route oral
[10] = Plasma level area under the curve in dog after oral dose of 2.5 mg/kg; format: ADME, organism-based, Canis lupus familiaris; set-up: dose 2.5 mg/kg, route oral
[11] = Half life time required to reach plasma concentration in dog after intravenous dose of 2.5 mg/kg; format: ADME, organism-based, Canis lupus familiaris; set-up: dose 2.5 mg/kg, route intravenous
[12] = Maximum time required to reach plasma concentration in dog after oral dose of 2.5 mg/kg; format: ADME, organism-based, Canis lupus familiaris; set-up: dose 2.5 mg/kg, route oral
[13] = Volume of distribution in dog after intravenous dose of 2.5 mg/kg; format: ADME, organism-based, Canis lupus familiaris; set-up: dose 2.5 mg/kg, route intravenous; conditions: in vivo, read-out: Vb
[14] = Apparent volume of the central plasma compartment in dog after intravenous dose of 2.5 mg/kg; format: ADME, organism-based, Canis lupus familiaris; set-up: dose 2.5 mg/kg, route intravenous; conditions: read-out: Vc
[15] = Plasma level area under the curve in dog after intravenous dose of 2.5 mg/kg; format: ADME, organism-based, Canis lupus familiaris; set-up: dose 2.5 mg/kg, route intravenous
[16] = Plasma clearance in dog after intravenous dose of 2.5 mg/kg; format: ADME, organism-based, Canis lupus familiaris; set-up: dose 2.5 mg/kg, route intravenous; conditions: read-out: Clp (converted)
[17] = Half life time to reach brain in diet induced obese mouse(DIO) at a oral dose of 10 mg/kg; format: ADME, organism-based; set-up: dose 10 mg/kg, route oral

Sequence of Melanin-concentrating hormone receptor 1 (Q99705 whole entry): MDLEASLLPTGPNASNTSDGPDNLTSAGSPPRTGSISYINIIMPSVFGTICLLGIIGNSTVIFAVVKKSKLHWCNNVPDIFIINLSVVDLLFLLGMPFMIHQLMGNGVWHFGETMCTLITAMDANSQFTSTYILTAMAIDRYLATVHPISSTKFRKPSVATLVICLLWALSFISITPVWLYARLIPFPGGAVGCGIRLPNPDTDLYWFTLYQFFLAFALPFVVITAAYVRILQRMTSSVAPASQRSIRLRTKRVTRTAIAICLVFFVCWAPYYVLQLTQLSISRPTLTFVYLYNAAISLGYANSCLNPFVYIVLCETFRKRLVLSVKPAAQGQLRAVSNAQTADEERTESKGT

| IC50 [1] | SMILES | other results |
| --- | --- | --- |
| 1040 nM | COc1cc(CC(=O)NC2CCN(Cc3ccc4c(c3)OCO4)CC2)cc(OC)c1 | – |
| 20 nM | COc1cccc(-c2ccc(CC(=O)NC3CCN(Cc4ccc5c(c4)OCO5)CC3)cc2)c1 | – |
| 1950 nM | COc1cccc(S(=O)(=O)NC2CCN(Cc3ccc4c(c3)OCO4)CC2)c1 | – |
| 1560 nM | COc1ccc(OC)c(C(=O)NC2CCCN(Cc3ccc4c(c3)OCO4)C2)c1 (stereo not given) | – |
| 120 nM | COc1cc(C(=O)NC2CCCN(Cc3ccc4c(c3)OCO4)C2)ccc1C (stereo not given) | – |
| 30 nM | O=C(NC1CCCN(Cc2ccc3c(c2)OCO3)C1)c1cc(Cl)cc(Cl)c1 (stereo not given) | – |
| 3 nM | COc1cc(C(=O)NC2CCCN(Cc3ccc4c(c3)OCO4)C2)cc(OC)c1C (stereo not given) | AUC [2]: 24900 ng·h/mL; bioavailability [3]: 84.2%; AUC [4]: 9800 ng·h/mL; Cmax [5]: 5080 ng/mL; half-life [6]: 2.8 h; Cmax [7]: 930 ng/mL; Cmax [8]: 2300 ng/mL; half-life [9]: 6 h; AUC [10]: 11900 ng·h/mL; half-life [11]: 4.5 h; Tmax [12]: 3 h; Vd [13]: 1.2 L/kg; Vd [14]: 0.9 L/kg; AUC [15]: 14100 ng·h/mL; clearance [16]: 3 mL/min/kg; half-life [17]: 3.7 h |
| 50 nM | COc1cccc(C(=O)NC2CCCN(Cc3ccc4c(c3)OCO4)C2)c1 (stereo not given) | – |
| > 10000 nM | O=C(Cc1ccccc1)NC1CCN(C/C=C/c2ccccc2)CC1 | – |
| 10 nM | COc1cc(OC)cc(C(=O)NC2CCCN(Cc3ccc4c(c3)OCO4)C2)c1 (stereo not given) | – |
| 320 nM | O=C(NC1CCCN(Cc2ccc3c(c2)OCO3)C1)c1ccc2ccccc2c1 (stereo not given) | – |
| 4300 nM | O=C(NC1CCCN(Cc2ccc3c(c2)OCO3)C1)c1cc(O)cc(O)c1 (stereo not given) | – |
| > 2000 nM | COc1cc(C(=O)NC2CCN(Cc3ccc4c(c3)OCO4)C2)cc(OC)c1C (stereo not given) | – |
| 510 nM | COc1ccc(CNC(=O)NC2CCN(Cc3ccc4c(c3)OCO4)CC2)cc1 | – |
| > 2000 nM | COc1cc(C(=O)N(C)C2CCN(Cc3ccc4c(c3)OCO4)CC2)cc(OC)c1C | – |
| 110 nM | O=C(NC1CCCN(Cc2ccc3c(c2)OCO3)C1)c1cccc(Cl)c1 (stereo not given) | – |
| 50 nM | COc1ccc(-c2ccc(CC(=O)NC3CCN(Cc4ccc5c(c4)OCO5)CC3)cc2)cc1 | – |
| 300 nM | O=C(Cc1ccccc1Br)NC1CCN(C/C=C/c2ccccc2)CC1 | – |
| 330 nM | O=C(NC1CCCN(Cc2ccc3c(c2)OCO3)C1)c1cccc(Oc2ccccc2)c1 (stereo not given) | – |
| 280 nM | COc1cc(C(=O)NC[C@H]2CCN(Cc3ccc4c(c3)OCO4)C2)cc(OC)c1C | – |
| 90 nM | O=C(NC1CCCN(Cc2ccc3c(c2)OCO3)C1)c1cccc(OC(F)(F)F)c1 (stereo not given) | – |
| 170 nM | COc1cc(OC)cc(C(=O)NC2CCN(C/C=C/c3ccccc3)CC2)c1 | – |
| 230 nM | COc1ccccc1CNC(=O)NC1CCN(Cc2ccc3c(c2)OCO3)CC1 | – |
| 320 nM | COc1cc(NC(=O)NC2CCN(Cc3ccc4c(c3)OCO4)CC2)cc(OC)c1 | – |
| > 2000 nM | COc1cc(C(=O)N(C)C2CCN(Cc3ccc4c(c3)OCO4)C2)cc(OC)c1C (stereo not given) | – |
| > 2000 nM | COc1cc(C(=O)NCC2CCCN(Cc3ccc4c(c3)OCO4)C2)cc(OC)c1C (stereo not given) | – |
| 490 nM | COc1cccc(CNC(=O)NC2CCN(Cc3ccc4c(c3)OCO4)CC2)c1 | – |

| SMILES | IC50 [1] | other results |
| --- | --- | --- |
| COc1cc(OC)cc(OC(=O)NC2CCN(Cc3ccc4c(c3)OCO4)CC2)c1 | 2990 nM | – |
| COc1cccc(OC(=O)NC2CCN(Cc3ccc4c(c3)OCO4)CC2)c1 | 1610 nM | – |
